Data on 19 molecules can be found in ChEMBL document CHEMBL5505984, “Carbazole to indolazepinone scaffold morphing leads to potent cell-active dengue antivirals” (Eur J Med Chem, 2024).

Several values for one entry are separate records, joined by “and”; a condition that tells them apart may be missing. Identical values can stand only once. Activity calls are given as the source filed them. No cut-off for these calls is given here.

Assay [1] concerns dengue virus type 2. As to the kind of experiment: Antiviral activity Dengue virus 2 by cell based assay. The assay is classed as functional, organism-based.
For assay [2], the system named is dengue virus type 2. Nature of the assay: Antiviral activity against Dengue virus 2 infected in human Huh-7 cells assessed as clearance of viral RNA relative to control. Type of assay: functional. More on the design: concentration or dose not given beside the values.
Assay [3] concerns dengue virus type 2. As to the kind of experiment: Antiviral activity Dengue virus 2 D2Y10 by cell based assay. The assay is classed as functional, organism-based.
Assay [4] deals with dengue virus type 4. As to the kind of experiment: Antiviral activity Dengue virus 4 by cell based assay. Type of assay: functional, organism-based.
Assay [5] relates to Zika virus. Nature of the assay: Antiviral activity Zika virus by cell based assay. Type of assay: functional, organism-based.
Assay [6] deals with dengue virus type 2. Nature of the assay: Antiviral activity against Dengue virus 2 D2Y10 infected in human THP-1 cells assessed as inhibition of secondary antibody dependent enhancement-driven infection relative to control. The assay is classed as functional.
Assay [7] relates to dengue virus type 1. Nature of the assay: Antiviral activity Dengue virus 1 by cell based assay. Type of assay: functional, organism-based.
The subject of assay [8] is dengue virus type 3. Nature of the assay: Antiviral activity Dengue virus 3 by cell based assay. The assay is classed as functional, organism-based.
Assay [9] relates to dengue virus type 2. Nature of the assay: Antiviral activity against Dengue virus 2 infected in human Huh-7 cells assessed as inhibition of plaque formation relative to control. The assay is classed as functional.
Assay [10] relates to dengue virus type 2. As to the kind of experiment: Antiviral activity against Dengue virus 2 infected in human Huh-7 cells assessed as clearance of viral RNA at 100 uM. Type of assay: functional, organism-based.
Assay [11] has as its system dengue virus type 2. As to the kind of experiment: Antiviral activity against Dengue virus 2 infected in human Huh-7 cells assessed as reduction in plaque reduction relative to control. More on the design: scale not given: the % may be the effect or the level left. Type of assay: functional.
Assay [12] deals with dengue virus type 2. Nature of the assay: Antiviral activity against Dengue virus 2 infected in human Huh-7 cells assessed as clearance of viral RNA at 10 uM. The assay is classed as functional, organism-based.

For orientation: EC50 means the midpoint of the concentration-response curve. In turn, `N/C(=N\O)c1cccc(CN2CCc3cn(Cc4cccc(Br)c4)c4cc(-c5cccc(/C(N)=N/O)c5)cc(c34)C2=O)c1` came in with an EC50 in [1] of 1350 nM. Further, the Activity in [2] is reported as more than 95%.
With `C#C[C@@]1(O)[C@H](O)[C@@H](CO)O[C@H]1n1ccc2c(N)ncnc21`, the EC50 came to 640 nM in [1]; 780 nM in [3]; 110 nM in [4]; 120 nM in assay [5]; 860 nM in assay [7]; 870 nM in assay [8]. Further, the “inhibition (INH)” value in assay [6] and in assay [9] was 100% in each case.
`N/C(=N\O)c1cccc(-c2ccc3c(C(=O)N4CCN(c5cccc(/C(N)=N/O)c5)CC4)cn(Cc4cccc(Br)c4)c3c2)c1` showed an EC50 in [1] of 1230 nM. Besides, the outcome in assay [10] was inactive.
In assay [1], `N/C(=N\O)c1cccc(CNC(=O)c2cn(Cc3cccc(Br)c3)c3ccc(-c4cccc(/C(N)=N/O)c4)cc23)c1` gave an EC50 of 1000 nM. Moreover, the Activity in [2] was more than 95%.
With `N/C(=N\O)c1cccc(-c2ccc3c(C(=O)N4CCN(c5cccc(/C(N)=N/O)c5)CC4)cn(Cc4ccc(Br)cc4)c3c2)c1`, in assay [1], a half-maximal response (EC50) required 1130 nM. Further, the outcome in assay [10] was inactive.
Regarding `N/C(=N\O)c1cccc(NC(=O)c2nn(Cc3cccc(Br)c3)cc2NC(=O)c2cccc(/C(N)=N/O)c2)c1`, the EC50 in assay [1] turned out to be 7020 nM.
`N/C(=N\O)c1ccc(CNC(=O)c2cn(Cc3cccc(Br)c3)c3ccc(-c4cccc(/C(N)=N/O)c4)cc23)cc1`: in assay [1], the midpoint of the response, the EC50, lay at 2270 nM. Further, in assay [2], the Activity is listed as more than 95%.
Regarding `N/C(=N\O)c1ccc(CN2CCc3cn(Cc4cccc(Br)c4)c4cc(-c5ccc(/C(N)=N/O)cc5)cc(c34)C2=O)cc1`, the Activity in [11] is recorded as less than 85%.
With `N/C(=N\O)c1cccc(-c2cc3c4c(cn(Cc5cccc(Br)c5)c4c2)CCN(Cc2ccc(/C(N)=N/O)s2)C3=O)c1`, the Activity in [11] was less than 85%.
`N/C(=N\O)c1cccc(CNC(=O)c2cn(Cc3cccc(Br)c3)c3cc(-c4cccc(/C(N)=N/O)c4)ccc23)c1`: in [1], the EC50 worked out at 6900 nM. Further, in [2], the Activity is given as more than 95%.
For `N/C(=N\O)c1cccc(NC(=O)c2cn(Cc3cccc(Br)c3)c3ccc(-c4cccc(/C(N)=N/O)c4)cc23)c1`, the EC50 in assay [1] was found to be 1800 nM. In assay [2], the Activity result was “>=95% and >95%”.
For the molecule `N/C(=N\O)c1ccc(CN2CCc3cn(Cc4ccc(Br)cc4)c4cc(-c5ccc(/C(N)=N/O)s5)cc(c34)C2=O)cc1`, the EC50 is 610 nM in [1]; 330 nM in assay [3]; 2250 nM in assay [4]; 1420 nM in [5]; 790 nM in assay [7]; 160 nM in [8]. Further, the Activity in assay [2] is reported as more than 95%. Also, the “inhibition (INH)” value came out at 60% in assay [6] and 100% in [9].
`N/C(=N\O)c1ccc(CN2CCc3cn(Cc4ccc(Br)nc4)c4cc(-c5cccc(/C(N)=N/O)c5)cc(c34)C2=O)cc1`: in [1], the EC50 was determined as 960 nM. Besides, the Activity in assay [2] was more than 95%.
Molecule `N/C(=N\O)c1cccc(NC(=O)c2nn(Cc3cccc(Br)c3)c3ccc(-c4cccc(/C(N)=N/O)c4)cc23)c1` had an EC50 in assay [1] of 2190 nM. Further, the outcome in assay [2] was inactive.
On to `N/C(=N\O)c1cccc(-c2ccc3c(C(=O)N4CCN(c5cccc(/C(N)=N/O)c5)CC4)cn(Cc4ccc(Br)nc4)c3c2)c1`, for which the midpoint of the response in assay [1], the EC50, lay at 1000 nM. For the same molecule, in [10], the result was inactive.
Regarding `N/C(=N\O)c1ccc(CN2CCc3cn(Cc4cccc(Br)c4)c4cc(-c5cccc(/C(N)=N/O)c5)cc(c34)C2=O)cc1`, the EC50 came to 660 nM in assay [1]; 380 nM in [3]; 1240 nM in assay [4]; 3400 nM in [5]; 1030 nM in assay [7]; 1440 nM in assay [8]. For the same molecule, the Activity in assay [2] is reported as more than 95%. Also, the “inhibition (INH)” value in assay [6] is 100%; in assay [9], 95%.
Turning to `N/C(=N\O)c1cccc(NC(=O)c2cn(Cc3ccc(Br)cc3)c3ccc(-c4cccc(/C(N)=N/O)c4)cc23)c1`, in assay [1], the EC50 was 4480 nM. In addition, the Activity in [2] is reported as more than 95%.
With `N/C(=N\O)c1ccc(CN2CCc3cn(Cc4ccc(Br)cc4)c4cc(-c5cccc(/C(N)=N/O)c5)cc(c34)C2=O)cc1`, the EC50 in [1] was determined as 100 nM; in assay [3] it was 100 nM; in assay [4], 950 nM; in assay [5], 1760 nM; in [7] it was 1260 nM; in assay [8], 120 nM. Also, the Activity in [2] was more than 95%. The “inhibition (INH)” value is reported as 100% in assay [6] and 97% in assay [9].
As for `N/C(=N\O)c1cccc(NC(=O)c2cn(CCn3cc(Br)cn3)c3ccc(-c4cccc(/C(N)=N/O)c4)cc23)c1`, the EC50 in [1] was determined as 1830 nM. For the same molecule, the outcome in [12] was inactive.
